Laboratory results published in ChEMBL document CHEMBL1126983, “Catalytic functionalization of polymers: a novel approach to site specific delivery of misoprostol to the stomach” (1993).

What was measured:
[1] = organism: Rattus norvegicus; assay: Compound was tested for mucosal protective activity against indomethacin-induced intestinal damage in rats; type: functional
[2] = tested on: Rattus norvegicus; assay: Compound was tested for diarrheagenic activity in rats after intracolonic administration (I.C); type: functional
[3] = tested on: Rattus norvegicus; assay: Compound was tested for diarrheagenic activity in rats after intragastric administration (I.G); type: functional
[4] = tested on: Rattus norvegicus; assay: Compound was tested for diarrheagenic activity in rats after intrajejuna administration (I.J); type: functional
[5] = organism: Rattus norvegicus; assay: Compound was tested for mucosal protective activity in rats using 4 hr EtOH model; type: functional
[6] = organism: Rattus norvegicus; assay: Compound was tested for mucosal protective activity against indomethacin-induced gastric damage in rats; type: functional, Stomach

For `CCCCC(C)(O)C/C=C/[C@H]1[C@H](O)CC(=O)[C@@H]1CCCCCCC(=O)OC` (stereo partly specified) [MISOPROSTOL], the ED50 [1] was 294 (ug of misoprostol) kg-1, the ED50 [2] was 97 (ug of misoprostol) kg-1 and the ED50 [3] was 265 (ug of misoprostol) kg-1. For the same compound, the ED50 [4] was 534 (ug of misoprostol) kg-1, the ED50 [5] was 525 (ug of misoprostol) kg-1 and the ED50 [6] was 14 (ug of misoprostol) kg-1.
